# Results: US11401271B2, “Fused heterocyclic compound, pyrazole-ring-containing fused heterocyclic compound, agricultural composition containing thereof, and method of using the composition” (SOUTH CHINA AGRICULTURAL UNIVERSITY, priority 2017, dated 2022)
# Like-named read-outs stand apart in the source and are kept apart here.
# Key:
# Test in all cases: whole plant or invertebrate
# Assay type in all cases: in vivo
# Solenopsis invicta = conditions: for mortality at 100 ppm: Solenopsis invicta
# Procedure: (4) Insecticidal Activity on Solenopsis invicta.
# As a hymenoptera pests and a social insect, Solenopsis invicta is one of the most destructive invasive organisms. Solenopsis invicta were used as test objects and tested by using a water test tube poison-feeding method.
# Operation process: Samples were weighed accurately, and respectively added with 200 μL of dimethyl sulfoxide to prepare 10 g/L mother liquor which was diluted into a concentration of 100 ppm with a mixed aqueous solution containing 0.05% of Tween-80 and 5% of honey during the test. […] The raising test tube was placed in a raising box horizontally, and a small amount of ham sausages were added to the raising test tube as food to raise the Solenopsis invicta at a constant temperature of 25° C. After being treated for 24 hours and 72 hours, a number of live Solenopsis invicta and a number of dead Solenopsis invicta were counted, and a mortality (%) was calculated according to a formula that mortality (%)=(number of live Solenopsis invicta in the control group−number of treated live Solenopsis invicta)/number of live Solenopsis invicta in the control group*100%.
# Plutella xylostella = conditions: for mortality at 500 ppm: Plutella xylostella, read-out: Plutella xylostella Mortality (%) 500 ppm
# Procedure: (1) Insecticidal Activity on 2nd-Instar Larvae of Plutella xylostella.
# Plutella xylostella (L.) is a lepidoptera pest with a chewing mouthpart and is a common vegetable pest. The 2nd-instar larvae of Plutella xylostella were used as test objects and tested by using a leaf immersion feeding method.
# (§1) Operation process: Samples were weighed accurately, and respectively added with 200 μL of dimethyl sulfoxide to prepare 10 g/L mother liquor which was diluted into a concentration of 500 ppm with an aqueous solution containing 0.05% of Tween-80 during the test. A hole puncher with a diameter of 1.0 cm was used to make cleaned cabbage leaves into leaf discs. The leaf discs were immersed in a liquid medicine, taken out after 5 seconds, air-dried naturally, and transferred into a clean vessel. About 35 2nd-instar larvae of Plutella xylostella were put into the vessel and fed at a constant temperature of 28° C. Each concentration was repeated 3 times, and an aqueous solution containing 0.05% of Tween-80 was used as a control group. After being treated for 24 hours, a number of dead Plutella xylostella was counted, and a mortality (%) was calculated according to a formula that mortality (%)=(number of live larvae in the control group−number of treated live larvae)/number of live larvae in the control group*100%.
# Spodoptera exigua = conditions: for mortality at 500 ppm: Spodoptera exigua, read-out: Spodoptera exigua Mortality (%) 500 ppm
# Procedure: (2) Insecticidal Activity on 2nd-Instar Larvae of Spodoptera exigua.
# Spodoptera exigua is a lepidoptera pest with a chewing mouthpart and is a common vegetable pest. The 2nd-instar larvae of Spodoptera exigua were used as test objects and tested by using a leaf immersion feeding method.
# as §1, with “μL,” for “μL”, “2nd -instar” for “2nd-instar”, “Spodoptera exigua” for “Plutella xylostella”, “group −number” for “group−number”, “group * 100%.” for “group*100%.”
# Aphis craccivora = conditions: for Aphis craccivora Mortality (%): immersion 5 seconds, counted after 24 hours; for mortality at 500 ppm: Aphis craccivora, read-out: Aphis craccivora Mortality (%) 500 ppm
# Procedure: (3) Insecticidal Activity on Aphid Adults.
# Aphid is a homoptera pest with a piercing-sucking mouthpart and is a common vegetable pest. Aphis craccivora were taken as test objects and tested by using an impregnation method.
# Operation process: Samples were weighed accurately, and respectively added with 200 μL of dimethyl sulfoxide to prepare 10 g/L mother liquor which was diluted into a concentration of 500 ppm with an aqueous solution containing 0.05% of Tween-80 during the test. After the wingless Aphis craccivora adults stably sucked on bean sprouts, the wingless Aphis craccivora adults together with the bean sprouts were immersed into a liquid medicine with a concentration of 500 ppm, taken out after 5 seconds, air-dried naturally, transferred into a clean vessel, and fed at a constant temperature of 23° C. Each concentration was repeated 3 times, and an aqueous solution containing 0.05% of Tween-80 was used as a control group. After being treated for 24 hours, a number of dead Aphis craccivora was counted, and a mortality (%) was calculated according to a formula that mortality (%)=(number of live Aphis craccivora in the control group−number of treated live Aphis craccivora)/number of live Aphis craccivora in the control group*100%.
# [1] = 100 ppm, 24 h, water test tube poison-feeding
# [2] = 100 ppm, 72 h, water test tube poison-feeding
# [3] = 500 ppm, 2nd-instar larvae, leaf immersion feeding
# [4] = 24 h, read-out: Solenopsis invicta Mortality (%) 100 ppm 24 h, 100 ppm, 24 h, water test tube poison-feeding
# [5] = 72 h, read-out: Solenopsis invicta Mortality (%) 100 ppm 72 h, 100 ppm, 72 h, water test tube poison-feeding
# [6] = 100 ppm, 24 h, water test tube poison-feeding, read-out: Solenopsis invicta Mortality (%) 100 ppm 24 h
# [7] = 100 ppm, 72 h, water test tube poison-feeding, read-out: Solenopsis invicta Mortality (%) 100 ppm 72 h
# [8] = 500 ppm, 2nd-instar larvae, leaf immersion feeding, 24 hours
# [9] = 500 ppm, wingless adults, impregnation method, 24 hours
Compound,mortality at 100 ppm (Solenopsis invicta; [4]) [%],mortality at 100 ppm (Solenopsis invicta; [5]) [%],mortality at 500 ppm (Plutella xylostella) [%],mortality at 500 ppm (Spodoptera exigua; 24 h) [%],mortality at 500 ppm (Aphis craccivora; 24 h) [%],other results
"9-chloro-2-cyano-3-cyclohexanesulfinyl-5-(2′2-dimethoxy)-7-trifluoromethyl-4,5-dihydropyrazole[1,5-α]quinazoline-5-methyl formate [d-12]",,,,,,"Solenopsis invicta Mortality (%) 24 h (Solenopsis invicta; [1]): 20%; Solenopsis invicta Mortality (%) 72 h (Solenopsis invicta; [2]): 100%; Plutella xylostella Mortality (%) (Plutella xylostella; [3]): 86%; Spodoptera exigua Mortality (%) (Spodoptera exigua; [3]): 96%; Aphis craccivora Mortality (%) (Aphis craccivora; 500 ppm, wingless adults): 100%"
COC(=O)CC1(C(=O)OC)Nc2c([S+]([O-])C(F)(F)F)c(C#N)nn2-c2cc(C(F)(F)F)cc(Cl)c21 (racemic) [c-8],,,,,,"Solenopsis invicta Mortality (%) 24 h (Solenopsis invicta; [1]): 20%; Solenopsis invicta Mortality (%) 72 h (Solenopsis invicta; [2]): 100%; Plutella xylostella Mortality (%) (Plutella xylostella; [3]): 100%; Spodoptera exigua Mortality (%) (Spodoptera exigua; [3]): 100%; Aphis craccivora Mortality (%) (Aphis craccivora; 500 ppm, wingless adults): 100%"
CC1(C)Nc2c(Br)c(C#N)nn2-c2ccccc21 [Compound A2],19,93,97,100,100,
CN1c2c(Br)c(C#N)nn2-c2ccccc2C1(C)C [Compound A3],25,100,90,100,100,
CNC(=O)c1nn2c(c1Br)NC(C)(C)c1ccccc1-2 [Compound A6],44,100,100,100,100,
CCSc1c(C#N)nn2c1NC(C)(C)c1ccccc1-2 [Compound A9],24,100,100,100,100,
Nc1ccc2c(c1)-n1nc(C(F)(F)F)c(Br)c1NC2(C(F)(F)F)C(F)(F)F [Compound A11],34,100,100,100,100,
CC[S+]([O-])c1c(C(F)(F)F)nn2c1NC(C(F)(F)F)(C(F)(F)F)c1ccc(N)cc1-2 (stereo not shown) [Compound A14],26,93,100,90,100,
CC(C)(C)Nc1c(C#N)nn2c1NC(C)(C)c1ccccc1-2 [Compound A16],20,87,86,100,100,
CC(=O)Nc1c(C#N)nn2c1NC(C)(C)c1ccccc1-2 [Compound A17],34,100,100,100,100,
CC1(C)Nc2c(NC(=O)Oc3ccccc3)c(C#N)nn2-c2ccccc21 [Compound A18],,,,,,mortality at 100 ppm (Solenopsis invicta; [6]): 44%; mortality at 100 ppm (Solenopsis invicta; [7]): 100%; mortality at 500 ppm (Plutella xylostella; [3]): 100%; mortality at 500 ppm (Spodoptera exigua; [8]): 100%; mortality at 500 ppm (Aphis craccivora; [9]): 100%
Cc1ccc(S(=O)(=O)Nc2c(C#N)nn3c2NC(C)(C)c2ccccc2-3)cc1 [Compound A20],26,93,100,90,100,
N#Cc1cnn2c1NC(N)(CN)c1ccc(Cl)cc1-2 (stereo not shown) [Compound A24],,,,,,Solenopsis invicta Mortality (%) 100 ppm 24 h (Solenopsis invicta; in vivo): 44%; Solenopsis invicta Mortality (%) 100 ppm 72 h (Solenopsis invicta; in vivo): 100%; Plutella xylostella Mortality (%) 500 ppm (Plutella xylostella; in vivo): 100%; Spodoptera exigua Mortality (%) 500 ppm (Spodoptera exigua; in vivo): 100%; Aphis craccivora Mortality (%) 500 ppm (Aphis craccivora; in vivo): 100%
CSc1nn2c(c1C#N)NC(F)(C(F)(F)F)c1ccccc1-2 (stereo not shown) [Compound A25],38,100,100,100,100,
CSc1nn2c(c1C(N)=O)NC(F)(C(F)(F)F)c1ccccc1-2 (stereo not shown) [Compound A28],29,97,100,90,100,
CSc1nn2c(c1C(=O)N(C)C)NC(F)(C(F)(F)F)c1ccccc1-2 (stereo not shown) [Compound A29],26,95,100,100,100,
CSc1nn2c(c1C#N)N(C(=O)Oc1ccccc1)C(F)(C(F)(F)F)c1ccccc1-2 (stereo not shown) [Compound A31],,,,,,mortality at 100 ppm (Solenopsis invicta; [6]): 20%; mortality at 100 ppm (Solenopsis invicta; [7]): 100%; mortality at 500 ppm (Plutella xylostella; [3]): 100%; mortality at 500 ppm (Spodoptera exigua; [8]): 100%; mortality at 500 ppm (Aphis craccivora; [9]): 100%
CSc1nn2c(c1C#N)N(S(C)(=O)=O)C(F)(C(F)(F)F)c1ccccc1-2 (stereo not shown) [Compound A33],24,100,100,100,100,
C=CCN1c2c(C#N)c(SC)nn2-c2ccccc2C1(F)C(F)(F)F (stereo not shown) [Compound A34],28,97,96,100,100,
CSc1nn2c(c1C#N)N(CCBr)C(F)(C(F)(F)F)c1ccccc1-2 (stereo not shown) [Compound A35],,,100,100,100,"mortality at 100 ppm (Solenopsis invicta; 24 h, read-out: Solenopsis invicta Mortality (%) 100 ppm 24 h): 31%; mortality at 100 ppm (Solenopsis invicta; 72 h, read-out: Solenopsis invicta Mortality (%) 100 ppm 72 h): 99%"
CCNc1cc2n(n1)-c1cnccc1C(F)(CC(F)(F)F)N2 (stereo not shown) [Compound A37],20,100,100,100,100,
C=CCN(CC)c1cc2n(n1)-c1cnccc1C(F)(CC(F)(F)F)N2 (stereo not shown) [Compound A38],26,93,100,90,100,
CC(=O)Nc1cc2n(n1)-c1cnccc1C(F)(CC(F)(F)F)N2 (stereo not shown) [Compound A39],24,100,100,100,100,
